Patent US4299822A, “N-Trifluoroacetyladriamycin-14-O-hemiglutarate and -hemiadipate and therapeutic compositions containing same” (Sidney Farber Cancer Institute, Inc., priority 1980, dated 1981)
Values after ≈ are worked out from the molar mass of the structure shown. Read-outs that look alike come from different tables or passages of the source.

How the values were obtained:
[1] = test system: CCRF-CEM cells; assay: growth inhibition of CCRF-CEM cell line in culture; assay type: cell-based; conditions: Homo sapiens, read-out: ID50 (dose required to inhibit growth of the cultures by 50% relative to control)
Source text: The in vitro assays measure the growth inhibiting activity of the materials against the CCRF-CEM cell line in culture. […] The in vivo evaluations were made by preparing a 0.2 to 0.7% by weight solution of the active agent in a formulation consisting of 10% by volume of each polyethoxylated castor oil and ethanol in saline and injecting the dosage intraperitoneally. The evaluations were made of the antitumor activity against the murine P388 and murine L1210 leukemias in BDF1 male mice according to standard National Cancer Institute protocols as set forth by Geran et al., Cancer Chemotherap. Rep., Part 3, Volume 3, pages 1 et seq.

[2] = test system: murine P388 leukemia; assay: in vivo antitumor activity against murine P388 leukemia, ip qd 1-4; parameters: species or system mouse (BDF1 male mice)
Description: (§1) The toxicity and therapeutic effectiveness of the new compounds and active agents of the present invention are shown by in vitro assays and by in vivo evaluations in mice. The in vitro assays measure the growth inhibiting activity of the materials against the CCRF-CEM cell line in culture. The cell line was derived from the peripheral blood of a child with lymphoblastic leukemia as described by Foley et al., Cancer, Volume 18, page 522 et seq. (1965), and the assays were carried out by the procedure of Foley and Lazarus, Biochem. Pharmacol., Volume 16, pages 659 et seq. (1967), the results being reported in terms of the dose in micromoles per liter required to inhibit growth of the cultures by 50% relative to control cultures to which no drug had been added (ID50). The in vivo evaluations were made by preparing a 0.2 to 0.7% by weight solution of the active agent in a formulation consisting of 10% by volume of each polyethoxylated castor oil and ethanol in saline and injecting the dosage intraperitoneally. The evaluations were made of the antitumor activity against the murine P388 and murine L1210 leukemias in BDF1 male mice according to standard National Cancer Institute protocols as set forth by Geran et al., Cancer Chemotherap. Rep., Part 3, Volume 3, pages 1 et seq. (1972) , except that a qd 1-4 schedule was used in place of qd 1-9 in order to conserve materials.
(§2) Optimal dosage was determined by testing doses which were at several multiples of 10 milligrams/kilogram of body weight. Some effectiveness can be observed at dosages ranging from 30 to 70 milligrams/kilogram of body weight, depending upon the particular compound employed.
The following table summarizes the in vivo antitumor activity of the same compounds as those in Table I, evaluated against murine P388 leukemia as described above. All compounds were administered intraperitoneally, adriamycin in clinical formulation (1 part adriamycin plus 5 parts lactose, in 0.9% saline), the other compounds in 10% Emulphor EL-620, 10% ethanol, 80% isotonic saline.

[3] = hydrolytic stability in aqueous buffers, TLC quantification of N-trifluoroacetyladriamycin; assay type: physicochemical; conditions: for degraded at 24 h: aqueous buffer, dark, read-out: Percent hydrolyzed; for resistance to hydrolysis: aqueous solutions
Source text: The results were as follows:

[4] = test system: mice; assay: toxicity to mice; assay type: in vivo, mouse
Description: as §1

[5] = cytotoxicity or anti-tumor activity (general statement); conditions: for cytotoxicity or anti-tumor activity relative to adriamycin: vs adriamycin; for cytotoxicity or anti-tumor activity relative to N-trifluoroacetyladriamycin-14-valerate: vs valerate
Description: as §1

[6] = solubility in water; conditions: for solubility: phosphate buffer, pH 7.4, aqueous buffer; for solubility in water relative to N-trifluoroacetyladriamycin-14-valerate: physiological pH in the range pH 7.2-7.5
[7] = steroid administration to patients with vehicle-associated chest pain; cited from earlier work
[8] = clinical use; cited from earlier work
[9] = test system: murine L1210 leukemia; assay: in vivo antitumor activity against L1210 leukemia, ip days 1-4; parameters: species or system mouse (BDF1 male mice)
Description: as §1, §2
All compounds were administered intraperitoneally; in tests (1) and (2), the compounds were in 10% Emulphor EL-620, 10% ethanol, and 80% isotonic saline. In test (3) the compound was in aqueous buffer containing monobasic potassium phosphate and sodium hydroxide (0.05 M), pH 7.40: […]

[10] = each dose 30.0 mg/kg ip, 10% Emulphor EL-620, 10% ethanol, 80% saline
[11] = each dose 40.0 mg/kg ip, 10% Emulphor EL-620, 10% ethanol, 80% saline
[12] = each dose 50.0 mg/kg ip, 10% Emulphor EL-620, 10% ethanol, 80% saline
[13] = each dose 60.0 mg/kg ip, 10% Emulphor EL-620, 10% ethanol, 80% saline
[14] = each dose 70.0 mg/kg ip, 10% Emulphor EL-620, 10% ethanol, 80% saline
[15] = 50.0 mg/kg/d × 4 ip, 10% Emulphor EL-620, 10% ethanol, 80% isotonic saline
[16] = 60.0 mg/kg/d × 4 ip, 10% Emulphor EL-620, 10% ethanol, 80% isotonic saline
[17] = test (3): 50.0 mg/kg/d × 4 ip, aqueous phosphate buffer (0.05 M) pH 7.40
[18] = test (3): 60.0 mg/kg/d × 4 ip, aqueous phosphate buffer (0.05 M) pH 7.40
[19] = each dose 1.0 mg/kg ip, clinical formulation (lactose, 0.9% saline)
[20] = each dose 2.0 mg/kg ip, clinical formulation (lactose, 0.9% saline)
[21] = each dose 3.0 mg/kg ip, clinical formulation (lactose, 0.9% saline)
[22] = each dose 4.0 mg/kg ip, clinical formulation (lactose, 0.9% saline)
[23] = each dose 5.0 mg/kg ip, clinical formulation (lactose, 0.9% saline)

Structure (SMILES): COc1cccc2c1C(=O)c1c(O)c3c(c(O)c1C2=O)CC(O)(C(=O)COC(=O)CCCC(=O)O)CC3OC1CC(NC(=O)C(F)(F)F)C(O)C(C)O1 (centres unmarked) [N-Trifluoroacetyladriamycin-14-O-hemiglutarate]
- IC50 ([1]; CCRF-CEM cells, in vitro): 0.28 µM
- % ILS (percent increase in life span relative to untreated controls) [2, 10]: 81%
- No. alive on d 30 [2, 10]: 2/7
- No. alive on d 60 [2, 10]: 0/7
- Survival, Median day of death (range) [2, 10]: 20.0 (20-35) day
- % ILS (percent increase in life span relative to untreated controls) [2, 11]: 109%
- No. alive on d 30 [2, 11]: 2/7
- No. alive on d 60 [2, 11]: 1/7
- Survival, Median day of death (range) [2, 11]: 23.0 (20-35) day
- % ILS (percent increase in life span relative to untreated controls) [2, 12]: 172%
- No. alive on d 30 [2, 12]: 3/7
- No. alive on d 60 [2, 12]: 2/7
- Survival, Median day of death (range) [2, 12]: 30.0 (20-42) day
- No. alive on d 30 [2, 13]: 5/7
- No. alive on d 60 [2, 13]: 4/7
- Survival, day of death (range only, no median) [2, 13]: 20,29 day
- No. alive on d 30 [2, 14]: 5/7
- No. alive on d 60 [2, 14]: 4/7
- Survival, day of death (range only, no median) [2, 14]: 25 to 36 days
- degraded at 24 h ([3]; pH 7.4, pH 7.40, 4° C.): 0%
- degraded at 24 h ([3]; pH 7.4, pH 7.40, 27° C.): 1%
- degraded at 24 h ([3]; pH 9, pH 9.00, 4° C.): < 0.5%
- degraded at 24 h ([3]; pH 9, pH 9.00, 27° C.): 3%
- resistance to hydrolysis [3]: excellent resistance to hydrolysis
- toxicity to mice relative to adriamycin or daunomycin [4]: significantly less toxic to mice than adriamycin or daunomycin
- cytotoxicity or anti-tumor activity relative to adriamycin [5]: greater than that of adriamycin
- cytotoxicity or anti-tumor activity relative to N-trifluoroacetyladriamycin-14-valerate [5]: approximately equal to that of N-trifluoroacetyladriamycin-14-valerate
- solubility [6]: 65 mg/mL (≈ 86.2 mM)
- solubility in water relative to N-trifluoroacetyladriamycin-14-valerate [6]: many times greater than that of N-trifluoroacetyladriamycin-14-valerate

Structure (SMILES): C[C@]12CCC(=O)C=C1CC[C@@H]1[C@@H]2[C@@H](O)C[C@@]2(C)[C@H]1CC[C@]2(O)C(=O)COC(=O)CCC(=O)O [hydrocortisone hemisuccinate]
- effect on chest pain symptom complex during valerate infusion [7]: eliminated the symptom complex in those cases

Structure (SMILES): COc1cccc2c1C(=O)c1c(O)c3c(c(O)c1C2=O)C[C@@](O)(C(C)=O)C[C@@H]3O[C@H]1C[C@H](N)[C@H](O)[C@H](C)O1 [daunorubicin]
- toxic side-effects (dose-limiting) [8]: acute myelosuppression and cumulative dose-related cardiac toxicity

Structure (SMILES): COc1cccc2c1C(=O)c1c(O)c3c(c(O)c1C2=O)CC(O)(C(=O)COC(=O)CCCCC(=O)O)CC3OC1CC(NC(=O)C(F)(F)F)C(O)C(C)O1 (centres unmarked) [N-Trifluoroacetyladriamycin-14-O-hemiadipate]
- IC50 ([1]; CCRF-CEM cells, in vitro): 0.31 µM
- No. alive on d 30 [2, 11]: 6/7
- No. alive on d 60 [2, 11]: 6/7
- Survival, day of death (range only, no median) [2, 11]: 25 days
- No. alive on d 30 [2, 12]: 6/7
- No. alive on d 60 [2, 12]: 5/7
- Survival, day of death (range only, no median) [2, 12]: 23,45 day
- No. alive on d 30 [2, 13]: 6/7
- No. alive on d 60 [2, 13]: 6/7
- Survival, day of death (range only, no median) [2, 13]: 24,93 day
- No. alive on d 30 [2, 14]: 7/7
- No. alive on d 60 [2, 14]: 7/7
- Survival, day of death (range only, no median) [2, 14]: 61 to 77 days
- % ILS (percent median increase in life span relative to untreated controls, calculated as of day 50) [9, 15]: > 456%
- No. alive on d 50 [9, 15]: 7/7
- % ILS (percent median increase in life span relative to untreated controls, calculated as of day 50) [9, 16]: > 456%
- No. alive on d 50 [9, 16]: 6/7
- prolonging the survival of mice bearing the L1210 leukemia ([9]; ip): highly effective in prolonging the survival of mice bearing the L1210 leukemia
- % ILS (percent median increase in life span relative to untreated controls, calculated as of day 50) [9, 17]: > 456%
- No. alive on d 50 [9, 17]: 5/7
- % ILS (percent median increase in life span relative to untreated controls, calculated as of day 50) [9, 18]: > 456%
- No. alive on d 50 [9, 18]: 7/7
- degraded at 24 h ([3]; pH 7.4, pH 7.40, 4° C.): 0%
- degraded at 24 h ([3]; pH 7.4, pH 7.40, 27° C.): 0.5%
- degraded at 24 h ([3]; pH 8, pH 8.00, 4° C.): 0.3%
- degraded at 24 h ([3]; pH 8, pH 8.00, 27° C.): 1%
- degraded at 24 h ([3]; pH 9, pH 9.00, 4° C.): 0.5%
- resistance to hydrolysis [3]: excellent resistance to hydrolysis
- toxicity to mice relative to adriamycin or daunomycin [4]: significantly less toxic to mice than adriamycin or daunomycin
- cytotoxicity or anti-tumor activity relative to adriamycin [5]: greater than that of adriamycin
- cytotoxicity or anti-tumor activity relative to N-trifluoroacetyladriamycin-14-valerate [5]: approximately equal to that of N-trifluoroacetyladriamycin-14-valerate
- solubility [6]: 60 mg/mL (≈ 78.2 mM)
- solubility in water relative to N-trifluoroacetyladriamycin-14-valerate [6]: many times greater than that of N-trifluoroacetyladriamycin-14-valerate

Structure (SMILES): COc1cccc2c1C(=O)c1c(O)c3c(c(O)c1C2=O)C[C@@](O)(C(=O)CO)C[C@@H]3O[C@H]1C[C@H](N)[C@H](O)[C@H](C)O1 [Adriamycin]
- IC50 ([1]; CCRF-CEM): 0.05 µM
- % ILS (percent increase in life span relative to untreated controls) [2, 19]: 81%
- No. alive on d 30 [2, 19]: 0/7
- Survival, Median day of death (range) [2, 19]: 20.0 (18-27) day
- % ILS (percent increase in life span relative to untreated controls) [2, 20]: 90%
- No. alive on d 30 [2, 20]: 2/7
- No. alive on d 60 [2, 20]: 1/7
- Survival, Median day of death (range) [2, 20]: 21.0 (20-32) day
- % ILS (percent increase in life span relative to untreated controls) [2, 21]: 181%
- No. alive on d 30 [2, 21]: 4/7
- No. alive on d 60 [2, 21]: 2/7
- Survival, Median day of death (range) [2, 21]: 31.0 (23-36) day
- % ILS (percent increase in life span relative to untreated controls) [2, 22]: 63%
- No. alive on d 30 [2, 22]: 0/7
- Survival, Median day of death (range) [2, 22]: 18.0 (7-28) day
- No. alive on d 30 [2, 23]: 0/7
- Survival, Median day of death (range) [2, 23]: 9.0 (7-27) day
- % ILS (percent increase in life span relative to untreated controls) ([2]; ip, 5 mg/kg): -19%
- toxic side-effects (dose-limiting) [8]: acute myelosuppression and cumulative dose-related cardiac toxicity
